20 molecules from ChEMBL document CHEMBL4270552, “4-(Phenoxy) and 4-(benzyloxy)benzamides as potent and selective inhibitors of mono-ADP-ribosyltransferase PARP10/ARTD10” (Eur J Med Chem, 2018) can be followed below.

Chain of Protein mono-ADP-ribosyltransferase PARP4 (Q9UKK3 whole entry, the tested form may be a part): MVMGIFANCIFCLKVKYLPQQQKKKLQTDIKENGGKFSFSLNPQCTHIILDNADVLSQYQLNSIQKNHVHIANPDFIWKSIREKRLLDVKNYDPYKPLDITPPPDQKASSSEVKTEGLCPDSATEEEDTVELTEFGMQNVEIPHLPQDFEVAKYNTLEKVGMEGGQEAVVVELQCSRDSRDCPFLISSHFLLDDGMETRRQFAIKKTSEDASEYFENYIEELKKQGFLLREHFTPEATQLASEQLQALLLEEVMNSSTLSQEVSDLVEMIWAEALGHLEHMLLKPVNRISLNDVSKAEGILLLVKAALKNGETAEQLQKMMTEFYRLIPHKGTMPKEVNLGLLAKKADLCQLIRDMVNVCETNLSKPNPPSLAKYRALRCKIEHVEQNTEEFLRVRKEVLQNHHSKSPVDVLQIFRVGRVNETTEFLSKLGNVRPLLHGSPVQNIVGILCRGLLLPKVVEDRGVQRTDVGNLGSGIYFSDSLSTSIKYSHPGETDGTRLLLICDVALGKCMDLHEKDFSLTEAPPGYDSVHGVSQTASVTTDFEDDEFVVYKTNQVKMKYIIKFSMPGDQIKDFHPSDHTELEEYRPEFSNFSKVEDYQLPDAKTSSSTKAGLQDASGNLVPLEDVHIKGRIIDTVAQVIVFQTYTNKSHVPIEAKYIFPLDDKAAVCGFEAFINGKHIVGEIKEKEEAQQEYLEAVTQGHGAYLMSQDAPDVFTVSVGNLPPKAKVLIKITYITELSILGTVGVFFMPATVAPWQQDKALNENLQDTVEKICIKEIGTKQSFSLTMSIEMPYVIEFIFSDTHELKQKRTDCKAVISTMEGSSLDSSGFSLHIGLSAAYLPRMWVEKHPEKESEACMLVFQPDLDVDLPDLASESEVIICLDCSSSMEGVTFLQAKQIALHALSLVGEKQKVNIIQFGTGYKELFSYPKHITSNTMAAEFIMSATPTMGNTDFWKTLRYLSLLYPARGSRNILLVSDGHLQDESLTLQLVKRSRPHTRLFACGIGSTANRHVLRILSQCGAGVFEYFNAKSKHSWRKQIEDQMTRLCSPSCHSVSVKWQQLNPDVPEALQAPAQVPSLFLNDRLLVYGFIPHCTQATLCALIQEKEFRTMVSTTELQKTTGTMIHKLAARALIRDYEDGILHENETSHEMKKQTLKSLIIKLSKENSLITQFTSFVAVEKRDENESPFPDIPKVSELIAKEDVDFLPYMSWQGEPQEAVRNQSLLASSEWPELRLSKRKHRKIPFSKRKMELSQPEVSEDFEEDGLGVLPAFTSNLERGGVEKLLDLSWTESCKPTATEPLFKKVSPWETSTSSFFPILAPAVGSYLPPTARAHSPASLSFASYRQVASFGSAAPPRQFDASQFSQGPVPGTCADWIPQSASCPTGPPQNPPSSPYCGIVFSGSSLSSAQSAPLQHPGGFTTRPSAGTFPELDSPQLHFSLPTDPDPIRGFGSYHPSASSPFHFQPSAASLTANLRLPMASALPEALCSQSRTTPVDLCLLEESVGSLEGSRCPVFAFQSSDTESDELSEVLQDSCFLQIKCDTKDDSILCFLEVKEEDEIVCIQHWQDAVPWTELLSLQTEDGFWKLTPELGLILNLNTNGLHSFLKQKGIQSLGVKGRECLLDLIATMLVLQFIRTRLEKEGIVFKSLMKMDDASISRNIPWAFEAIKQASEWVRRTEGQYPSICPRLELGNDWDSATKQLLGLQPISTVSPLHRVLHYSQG

One experiment addresses T1, Protein mono-ADP-ribosyltransferase PARP10 (Homo sapiens, UniProt Q53GL7).
T1 sequence (Q53GL7 whole entry): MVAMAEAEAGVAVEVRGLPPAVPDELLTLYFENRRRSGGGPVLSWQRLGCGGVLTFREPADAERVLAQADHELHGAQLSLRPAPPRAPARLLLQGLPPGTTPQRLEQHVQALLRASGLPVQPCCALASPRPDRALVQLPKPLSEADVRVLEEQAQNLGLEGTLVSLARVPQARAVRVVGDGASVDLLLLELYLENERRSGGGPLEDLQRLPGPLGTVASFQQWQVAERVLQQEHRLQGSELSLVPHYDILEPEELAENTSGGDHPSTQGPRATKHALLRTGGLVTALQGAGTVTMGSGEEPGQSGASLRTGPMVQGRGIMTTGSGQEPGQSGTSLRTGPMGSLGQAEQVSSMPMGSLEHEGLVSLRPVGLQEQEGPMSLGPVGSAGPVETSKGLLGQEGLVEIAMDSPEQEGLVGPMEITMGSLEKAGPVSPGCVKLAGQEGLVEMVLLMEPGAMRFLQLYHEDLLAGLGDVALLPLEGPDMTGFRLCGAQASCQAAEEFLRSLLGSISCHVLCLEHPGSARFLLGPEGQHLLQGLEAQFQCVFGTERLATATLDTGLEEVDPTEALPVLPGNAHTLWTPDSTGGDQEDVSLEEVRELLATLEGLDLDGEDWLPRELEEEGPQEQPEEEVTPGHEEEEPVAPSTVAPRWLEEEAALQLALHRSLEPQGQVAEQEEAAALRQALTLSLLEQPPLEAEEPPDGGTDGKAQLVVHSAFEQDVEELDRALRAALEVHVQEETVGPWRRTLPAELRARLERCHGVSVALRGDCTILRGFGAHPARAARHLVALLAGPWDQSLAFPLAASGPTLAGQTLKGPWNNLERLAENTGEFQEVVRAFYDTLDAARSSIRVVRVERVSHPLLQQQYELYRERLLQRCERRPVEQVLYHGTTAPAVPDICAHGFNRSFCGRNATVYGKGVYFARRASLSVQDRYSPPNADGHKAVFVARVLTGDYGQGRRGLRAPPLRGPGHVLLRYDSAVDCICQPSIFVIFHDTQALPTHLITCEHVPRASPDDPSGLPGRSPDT
Briefly: Inhibition of C-terminal His-tagged human ARTD10 (809 to 1017 residues) expressed in Escherichia coli Rosetta2 (DE3) using SRPK2 as substrate after 13 hrs in presence of NAD+. To be noted: read-out: IC50.
As for `NC(=O)c1ccc(Oc2ccc(N)cc2)cc1`, the IC50 is 1300 nM.

Consider `NC(=O)c1ccc(OCc2cccc(F)c2)cc1`, for which the IC50 stood at 3300 nM.

With `NC(=O)c1ccc(Oc2ccccc2F)cc1`, the IC50 came out at 1700 nM.

With `COc1ccc(Oc2ccc(C(N)=O)cc2)cc1`, the IC50 turned out to be 1400 nM.

As for `NC(=O)c1ccc(OCc2ccccc2Br)cc1`, the IC50 came to 3800 nM.

As to `NC(=O)c1ccc(OCc2ccc(F)cc2)cc1`, the IC50 came to 7900 nM.

Regarding `NC(=O)c1ccc(Oc2ccc(O)cc2)cc1`, the IC50 stood at 1800 nM.

`Cc1ccc(COc2ccc(C(N)=O)cc2)cc1`: the IC50 was 9300 nM.

Take `NC(=O)c1ccc(OCc2ccccc2)cc1`: the IC50 came to 1400 nM.

Consider `NC(=O)c1ccc(OCc2ccccn2)cc1`, for which the IC50 amounted to 1350 nM.

In the case of `NC(=O)c1ccc(OCc2cccc3ccccc23)cc1`, the IC50 turned out to be 1400 nM.

Regarding `NC(=O)c1ccc(OCCOc2ccccc2)cc1`, the IC50 turned out to be 1900 nM.

Regarding `NC(=O)c1ccc(OC2CCC2)cc1`, the IC50 is 720 nM.

As to `NC(=O)c1ccc(OC(=O)c2ccccc2)cc1`, the IC50 stood at 7300 nM.

With `CC(C)Oc1ccc(C(N)=O)cc1`, the IC50 was 1300 nM.

Take `Cc1cc(C)cc(COc2ccc(C(N)=O)cc2)c1`: the IC50 was 4500 nM.

As for `CCOc1ccc(C(N)=O)cc1`, the IC50 was determined as 3500 nM.

Regarding `NC(=O)c1ccc(Oc2ccccc2)cc1`, the IC50 worked out at 1100 nM.

For `NC(=O)c1ccc(COc2ccc(C(N)=O)cc2)cc1`, the IC50 worked out at 2000 nM.

Still in this experiment, the particulars now being: read-out: pIC50 (converted).
For `NC(=O)c1ccc(Oc2ccc(N)cc2)cc1`, the IC50 was 1260 nM.

As for `NC(=O)c1ccc(OCc2cccc(F)c2)cc1`, the IC50 was 3310 nM.

On to `NC(=O)c1ccc(Oc2ccccc2F)cc1`, for which the IC50 was 1700 nM.

As for `COc1ccc(Oc2ccc(C(N)=O)cc2)cc1`, the IC50 is 1380 nM.

In the case of `NC(=O)c1ccc(OCc2ccccc2Br)cc1`, the IC50 is 3800 nM.

For `NC(=O)c1ccc(OCc2ccc(F)cc2)cc1`, the IC50 is 7940 nM.

With `NC(=O)c1ccc(Oc2ccc(O)cc2)cc1`, the IC50 was 1740 nM.

As to `Cc1ccc(COc2ccc(C(N)=O)cc2)cc1`, the IC50 is 9330 nM.

With `NC(=O)c1ccc(OCc2ccccc2)cc1`, the IC50 was 1350 nM.

For `NC(=O)c1ccc(OCc2ccccn2)cc1`, the IC50 is 1350 nM.

With `NC(=O)c1ccc(OCc2cccc3ccccc23)cc1`, the IC50 was 1450 nM.

As for `NC(=O)c1ccc(OCCOc2ccccc2)cc1`, the IC50 is 1950 nM.

With `NC(=O)c1ccc(OC2CCC2)cc1`, the IC50 was 724 nM.

In the case of `NC(=O)c1ccc(OC(=O)c2ccccc2)cc1`, the IC50 is 7240 nM.

For the molecule `CC(C)Oc1ccc(C(N)=O)cc1`, the IC50 was 1260 nM.

Consider `Cc1cc(C)cc(COc2ccc(C(N)=O)cc2)c1`, for which the IC50 was 4570 nM.

In the case of `CCOc1ccc(C(N)=O)cc1`, the IC50 is 3390 nM.

With `NC(=O)c1ccc(Oc2ccccc2)cc1`, the IC50 is 1150 nM.

The next experiment concerns the target Protein mono-ADP-ribosyltransferase PARP4 (Homo sapiens, UniProt Q9UKK3). The experiment in a line: Inhibition of N-terminal His-tagged human ARTD4 (250 to 565 residues) expressed in Escherichia coli Rosetta2 (DE3) using TCEP as substrate after 2.5 hrs in presence of NAD+.
Settings: not given
As to `NC(=O)c1ccc(Oc2ccc(C(N)=O)cc2)cc1`, the IC50 amounted to 23 µM.

The target in another experiment is Protein mono-ADP-ribosyltransferase PARP9 (Homo sapiens) (UniProt Q8IXQ6).
Settings: not given
As usually defined, the ΔTm is the change in melting temperature against a reference sample. As for `NC(=O)c1ccc(Oc2ccc(C(N)=O)cc2)cc1`, the ΔTm worked out at 0.72 °C.

The target of another experiment is Zinc finger CCCH-type antiviral protein 1 (Homo sapiens) (UniProt Q7Z2W4).
Chain of Zinc finger CCCH-type antiviral protein 1 (Homo sapiens) (Q7Z2W4 whole entry): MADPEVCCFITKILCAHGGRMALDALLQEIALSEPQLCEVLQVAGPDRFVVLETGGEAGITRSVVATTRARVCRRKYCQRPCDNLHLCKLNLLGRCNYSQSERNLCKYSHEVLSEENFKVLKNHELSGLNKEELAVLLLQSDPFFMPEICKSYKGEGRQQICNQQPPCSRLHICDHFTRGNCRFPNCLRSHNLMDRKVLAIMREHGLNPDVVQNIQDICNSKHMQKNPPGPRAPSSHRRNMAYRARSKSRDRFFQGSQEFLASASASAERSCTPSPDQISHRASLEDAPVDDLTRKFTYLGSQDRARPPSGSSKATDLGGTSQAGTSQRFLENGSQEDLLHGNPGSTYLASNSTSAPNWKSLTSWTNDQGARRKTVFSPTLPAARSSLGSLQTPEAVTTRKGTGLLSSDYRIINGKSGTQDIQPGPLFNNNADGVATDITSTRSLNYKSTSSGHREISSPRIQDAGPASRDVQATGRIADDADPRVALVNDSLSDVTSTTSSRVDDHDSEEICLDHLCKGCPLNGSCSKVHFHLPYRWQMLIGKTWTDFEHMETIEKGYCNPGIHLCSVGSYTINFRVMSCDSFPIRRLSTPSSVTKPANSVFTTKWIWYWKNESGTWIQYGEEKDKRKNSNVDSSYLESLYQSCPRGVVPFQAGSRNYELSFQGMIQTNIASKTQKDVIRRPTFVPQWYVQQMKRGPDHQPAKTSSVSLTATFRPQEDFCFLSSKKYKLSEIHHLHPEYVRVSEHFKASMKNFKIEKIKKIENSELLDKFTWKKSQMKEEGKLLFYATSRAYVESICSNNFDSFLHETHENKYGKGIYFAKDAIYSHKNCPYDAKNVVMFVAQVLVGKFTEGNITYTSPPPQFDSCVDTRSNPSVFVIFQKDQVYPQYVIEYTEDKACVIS
Settings: not given
Turning to `NC(=O)c1ccc(Oc2ccc(C(N)=O)cc2)cc1`, the ΔTm was found to be 0.4 °C.

Another experiment deals with T2, Protein mono-ADP-ribosyltransferase PARP12 (Homo sapiens, UniProt Q9H0J9).
T2 sequence (Q9H0J9 whole entry): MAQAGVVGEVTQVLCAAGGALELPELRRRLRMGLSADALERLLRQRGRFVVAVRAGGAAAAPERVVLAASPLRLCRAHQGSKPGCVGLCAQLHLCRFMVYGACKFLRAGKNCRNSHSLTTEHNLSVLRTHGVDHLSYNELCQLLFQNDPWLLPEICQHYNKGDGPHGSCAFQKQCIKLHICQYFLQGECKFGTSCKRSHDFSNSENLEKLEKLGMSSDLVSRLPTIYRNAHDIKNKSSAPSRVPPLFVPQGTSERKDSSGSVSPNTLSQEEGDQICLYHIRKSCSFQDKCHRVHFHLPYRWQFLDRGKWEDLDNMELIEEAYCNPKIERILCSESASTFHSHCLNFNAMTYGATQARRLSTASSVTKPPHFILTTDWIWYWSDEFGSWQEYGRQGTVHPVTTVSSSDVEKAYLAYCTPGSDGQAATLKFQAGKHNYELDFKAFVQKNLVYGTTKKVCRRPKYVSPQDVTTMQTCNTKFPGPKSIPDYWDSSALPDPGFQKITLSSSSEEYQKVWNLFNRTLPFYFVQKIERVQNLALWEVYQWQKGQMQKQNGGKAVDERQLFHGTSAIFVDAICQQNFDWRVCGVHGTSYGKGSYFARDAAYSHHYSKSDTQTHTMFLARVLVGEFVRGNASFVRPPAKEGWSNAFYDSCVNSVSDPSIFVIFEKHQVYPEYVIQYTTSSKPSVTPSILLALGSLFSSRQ
Briefly: Inhibition of N-terminal His-tagged thioredoxin-fused human ARTD12 (469 to 701 residues) expressed in Escherichia coli Rosetta2 (DE3) after 20 hrs in presence of NAD+.
Settings: not given
On to `NC(=O)c1ccc(Oc2ccc(C(N)=O)cc2)cc1`, for which the IC50 is more than 10 µM.

The target in another experiment is T3, Protein mono-ADP-ribosyltransferase PARP10 (Homo sapiens) (UniProt Q53GL7).
T3 sequence (whole entry): T1 sequence (Q53GL7 whole entry)
Settings: not given
Turning to `NC(=O)c1ccc(Oc2ccc(C(N)=O)cc2)cc1`, the ΔTm worked out at 3.8 °C.
